Measured values reported in article PMC11397024, “Strategic Fluorination to Achieve a Potent, Selective, Metabolically Stable, and Orally Bioavailable Inhibitor of CSNK2” (Molecules, 2024).

How the values were obtained:
Experiment in all cases: NanoBRET K192
Type in all cases: cell-based
AURKB = biological target: T1, AURKB (Homo sapiens, UniProt Q96GD4); conditions: HEK293
T1 construct: purchased Promega (NanoBRET Target Engagement K192 Kinase Selectivity System)
Outline: (§1)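 HEK293 cells were transfected overnight with NanoLuc–kinase fusion vectors, then treated for 2 h at 37 °C with compound (added as 100 μM working solution) plus K10 tracer. BRET was read at 450/610 nm after substrate and extracellular inhibitor, and fractional occupancy was calculated against no-compound controls.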

BRSK2 = biological target: T2, BRSK2 (Homo sapiens, UniProt Q8IWQ3); conditions: HEK293
T2 construct: purchased Promega (NanoBRET Target Engagement K192 Kinase Selectivity System)
Outline: as §1

CAMK2D = biological target: T3, CAMK2D (Homo sapiens, UniProt Q13557); conditions: HEK293
T3 construct: purchased Promega (NanoBRET Target Engagement K192 Kinase Selectivity System)
Outline: as §1

CDK1 + B1 = biological target: T4, CDK1 + B1 (Homo sapiens, UniProt P06493); conditions: HEK293
T4 construct: purchased Promega (NanoBRET Target Engagement K192 Kinase Selectivity System)
Outline: as §1

CDK14 + Y = biological target: T5, CDK14 + Y (Homo sapiens, UniProt O94921); conditions: HEK293
T5 construct: purchased Promega (NanoBRET Target Engagement K192 Kinase Selectivity System)
Outline: as §1

CDKL1 = biological target: T6, CDKL1 (Homo sapiens, UniProt Q00532); conditions: HEK293
T6 construct: purchased Promega (NanoBRET Target Engagement K192 Kinase Selectivity System)
Outline: as §1

CLK4 = biological target: T7, CLK4 (Homo sapiens, UniProt Q9HAZ1)
T7 construct: expressed in transfected cells; host or cells: HEK293
Outline: as §1

CSNK1G2 = biological target: T8, CSNK1G2 (Homo sapiens, UniProt P78368); conditions: HEK293
T8 construct: purchased Promega (NanoBRET Target Engagement K192 Kinase Selectivity System)
Outline: as §1

DCLK3 = biological target: T9, DCLK3 (Homo sapiens, UniProt Q9C098); conditions: HEK293
T9 construct: purchased Promega (NanoBRET Target Engagement K192 Kinase Selectivity System)
Outline: as §1

EPHA4 = biological target: T10, EPHA4 (Homo sapiens, UniProt P54764); conditions: HEK293
T10 construct: purchased Promega (NanoBRET Target Engagement K192 Kinase Selectivity System)
Outline: as §1

ERN2 = biological target: T11, ERN2 (Homo sapiens, UniProt Q76MJ5); conditions: HEK293
T11 construct: purchased Promega (NanoBRET Target Engagement K192 Kinase Selectivity System)
Outline: as §1

FES = biological target: T12, FES (Homo sapiens, UniProt P07332); conditions: HEK293
T12 construct: purchased Promega (NanoBRET Target Engagement K192 Kinase Selectivity System)
Outline: as §1

HIPK2 = biological target: T13, HIPK2 (Homo sapiens, UniProt Q9H2X6); conditions: HEK293
T13 construct: purchased Promega (NanoBRET Target Engagement K192 Kinase Selectivity System)
Outline: as §1

JAK3 = biological target: T14, JAK3 (Homo sapiens, UniProt P52333); conditions: HEK293
T14 construct: purchased Promega (NanoBRET Target Engagement K192 Kinase Selectivity System)
Outline: as §1

MAP4K1 = biological target: T15, MAP4K1 (Homo sapiens, UniProt Q92918); conditions: HEK293
T15 construct: purchased Promega (NanoBRET Target Engagement K192 Kinase Selectivity System)
Outline: as §1

MAPK14 = biological target: T16, MAPK14 (Homo sapiens, UniProt Q16539); conditions: HEK293
T16 construct: purchased Promega (NanoBRET Target Engagement K192 Kinase Selectivity System)
Outline: as §1

NTRK2 = biological target: T17, NTRK2 (Homo sapiens, UniProt Q16620); conditions: HEK293
T17 construct: purchased Promega (NanoBRET Target Engagement K192 Kinase Selectivity System)
Outline: as §1

PHKG2 = biological target: T18, PHKG2 (Homo sapiens, UniProt P15735); conditions: HEK293
T18 construct: purchased Promega (NanoBRET Target Engagement K192 Kinase Selectivity System)
Outline: as §1

PLK4 = biological target: T19, PLK4 (Homo sapiens, UniProt O00444); conditions: HEK293
T19 construct: purchased Promega (NanoBRET Target Engagement K192 Kinase Selectivity System)
Outline: as §1

PRKCE = biological target: T20, PRKCE (Homo sapiens, UniProt Q02156); conditions: HEK293
T20 construct: purchased Promega (NanoBRET Target Engagement K192 Kinase Selectivity System)
Outline: as §1

RIPK1 = biological target: T21, RIPK1 (Homo sapiens, UniProt Q13546); conditions: HEK293
T21 construct: purchased Promega (NanoBRET Target Engagement K192 Kinase Selectivity System)
Outline: as §1

RPS6KA4 = biological target: T22, RPS6KA4 (Homo sapiens, UniProt O75676); conditions: HEK293
T22 construct: purchased Promega (NanoBRET Target Engagement K192 Kinase Selectivity System)
Outline: as §1

STK32B = biological target: T23, STK32B (Homo sapiens, UniProt Q9NY57); conditions: HEK293
T23 construct: purchased Promega (NanoBRET Target Engagement K192 Kinase Selectivity System)
Outline: as §1

TBK1 = biological target: T24, TBK1 (Homo sapiens, UniProt Q9UHD2); conditions: HEK293
T24 construct: purchased Promega (NanoBRET Target Engagement K192 Kinase Selectivity System)
Outline: as §1

TEK = biological target: T25, TEK (Homo sapiens, UniProt Q02763); conditions: HEK293
T25 construct: purchased Promega (NanoBRET Target Engagement K192 Kinase Selectivity System)
Outline: as §1

TLK2 = biological target: T26, TLK2 (Homo sapiens, UniProt Q86UE8); conditions: HEK293
T26 construct: purchased Promega (NanoBRET Target Engagement K192 Kinase Selectivity System)
Outline: as §1

TNNI3K = biological target: T27, TNNI3K (Homo sapiens, UniProt Q59H18); conditions: HEK293
T27 construct: purchased Promega (NanoBRET Target Engagement K192 Kinase Selectivity System)
Outline: as §1

ULK2 = biological target: T28, ULK2 (Homo sapiens, UniProt Q8IYT8); conditions: HEK293
T28 construct: purchased Promega (NanoBRET Target Engagement K192 Kinase Selectivity System)
Outline: as §1

T7 sequence (Q9HAZ1 whole entry): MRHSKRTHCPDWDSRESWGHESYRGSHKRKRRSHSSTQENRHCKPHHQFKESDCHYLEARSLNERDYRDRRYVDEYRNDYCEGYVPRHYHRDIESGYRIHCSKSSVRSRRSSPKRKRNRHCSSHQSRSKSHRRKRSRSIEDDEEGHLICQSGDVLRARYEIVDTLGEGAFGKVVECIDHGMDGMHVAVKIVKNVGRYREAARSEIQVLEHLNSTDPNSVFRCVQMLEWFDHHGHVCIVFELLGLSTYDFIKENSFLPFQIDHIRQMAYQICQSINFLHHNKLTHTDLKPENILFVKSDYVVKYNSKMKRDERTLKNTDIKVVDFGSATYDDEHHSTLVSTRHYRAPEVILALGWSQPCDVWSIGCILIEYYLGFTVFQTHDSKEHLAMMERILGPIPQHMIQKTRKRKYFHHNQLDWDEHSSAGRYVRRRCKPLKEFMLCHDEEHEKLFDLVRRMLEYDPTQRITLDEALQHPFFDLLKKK
T27 sequence (Q59H18 whole entry): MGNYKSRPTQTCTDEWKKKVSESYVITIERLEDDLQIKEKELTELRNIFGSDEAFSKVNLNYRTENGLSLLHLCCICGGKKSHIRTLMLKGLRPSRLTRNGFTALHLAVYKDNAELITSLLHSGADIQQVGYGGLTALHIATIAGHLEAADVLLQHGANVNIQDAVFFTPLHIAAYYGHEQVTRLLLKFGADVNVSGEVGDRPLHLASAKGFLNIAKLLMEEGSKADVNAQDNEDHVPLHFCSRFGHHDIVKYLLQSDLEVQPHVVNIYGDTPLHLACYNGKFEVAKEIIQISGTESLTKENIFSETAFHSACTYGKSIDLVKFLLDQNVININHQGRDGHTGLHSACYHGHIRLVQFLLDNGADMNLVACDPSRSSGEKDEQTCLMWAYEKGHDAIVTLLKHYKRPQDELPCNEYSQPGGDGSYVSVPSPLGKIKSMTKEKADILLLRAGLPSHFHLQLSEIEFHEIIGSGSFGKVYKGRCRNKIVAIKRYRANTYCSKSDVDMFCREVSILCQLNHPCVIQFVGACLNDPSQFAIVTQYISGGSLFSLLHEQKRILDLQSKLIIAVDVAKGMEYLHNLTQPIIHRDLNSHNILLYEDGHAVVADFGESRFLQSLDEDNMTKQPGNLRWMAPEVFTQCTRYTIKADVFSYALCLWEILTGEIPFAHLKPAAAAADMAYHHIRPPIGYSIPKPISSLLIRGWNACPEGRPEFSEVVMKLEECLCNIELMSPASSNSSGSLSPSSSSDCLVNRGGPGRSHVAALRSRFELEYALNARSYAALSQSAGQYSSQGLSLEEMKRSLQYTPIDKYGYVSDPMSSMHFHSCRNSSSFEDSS
T17 sequence (Q16620 32-822): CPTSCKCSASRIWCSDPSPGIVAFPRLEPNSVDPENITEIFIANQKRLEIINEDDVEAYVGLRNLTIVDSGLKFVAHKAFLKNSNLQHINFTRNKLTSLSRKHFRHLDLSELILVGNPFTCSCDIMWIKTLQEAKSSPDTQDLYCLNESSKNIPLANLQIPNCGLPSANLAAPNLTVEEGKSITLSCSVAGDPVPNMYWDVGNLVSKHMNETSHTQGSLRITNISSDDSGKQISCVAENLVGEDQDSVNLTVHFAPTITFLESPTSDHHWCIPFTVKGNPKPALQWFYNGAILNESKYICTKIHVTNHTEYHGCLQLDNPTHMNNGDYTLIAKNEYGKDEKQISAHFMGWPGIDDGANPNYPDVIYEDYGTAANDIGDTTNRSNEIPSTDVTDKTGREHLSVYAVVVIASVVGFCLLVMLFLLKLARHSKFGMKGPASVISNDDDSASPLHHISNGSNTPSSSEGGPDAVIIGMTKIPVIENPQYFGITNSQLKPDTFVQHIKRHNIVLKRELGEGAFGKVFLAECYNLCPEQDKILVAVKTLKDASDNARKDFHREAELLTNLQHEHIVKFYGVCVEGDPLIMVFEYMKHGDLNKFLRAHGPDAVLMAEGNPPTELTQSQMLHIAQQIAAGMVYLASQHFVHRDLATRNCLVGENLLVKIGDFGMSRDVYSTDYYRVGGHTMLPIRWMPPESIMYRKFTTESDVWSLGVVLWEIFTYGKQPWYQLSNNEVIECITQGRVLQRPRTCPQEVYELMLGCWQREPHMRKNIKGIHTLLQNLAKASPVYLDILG
T5 sequence (O94921 whole entry): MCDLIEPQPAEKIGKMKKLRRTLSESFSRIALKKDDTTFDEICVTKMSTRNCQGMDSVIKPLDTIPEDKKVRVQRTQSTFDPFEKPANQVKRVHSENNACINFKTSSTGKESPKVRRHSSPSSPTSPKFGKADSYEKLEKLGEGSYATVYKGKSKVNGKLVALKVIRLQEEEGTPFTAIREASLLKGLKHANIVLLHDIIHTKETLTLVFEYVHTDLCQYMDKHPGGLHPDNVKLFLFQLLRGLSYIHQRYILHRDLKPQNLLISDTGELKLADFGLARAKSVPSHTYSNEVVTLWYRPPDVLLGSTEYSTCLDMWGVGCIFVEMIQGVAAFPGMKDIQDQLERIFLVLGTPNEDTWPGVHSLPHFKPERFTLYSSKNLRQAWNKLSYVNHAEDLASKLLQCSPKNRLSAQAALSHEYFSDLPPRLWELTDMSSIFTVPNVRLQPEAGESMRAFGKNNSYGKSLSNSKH
T5 sequence (Q8ND76 whole entry partner): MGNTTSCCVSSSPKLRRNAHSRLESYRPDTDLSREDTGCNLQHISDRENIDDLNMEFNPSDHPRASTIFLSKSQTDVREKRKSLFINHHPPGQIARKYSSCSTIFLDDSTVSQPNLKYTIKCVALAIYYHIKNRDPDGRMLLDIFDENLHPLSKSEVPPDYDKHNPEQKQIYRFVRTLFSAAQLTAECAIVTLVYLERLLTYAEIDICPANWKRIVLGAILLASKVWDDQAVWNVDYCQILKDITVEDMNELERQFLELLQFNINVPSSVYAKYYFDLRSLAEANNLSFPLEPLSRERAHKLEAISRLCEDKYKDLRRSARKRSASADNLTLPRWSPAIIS
T8 sequence (P78368 whole entry): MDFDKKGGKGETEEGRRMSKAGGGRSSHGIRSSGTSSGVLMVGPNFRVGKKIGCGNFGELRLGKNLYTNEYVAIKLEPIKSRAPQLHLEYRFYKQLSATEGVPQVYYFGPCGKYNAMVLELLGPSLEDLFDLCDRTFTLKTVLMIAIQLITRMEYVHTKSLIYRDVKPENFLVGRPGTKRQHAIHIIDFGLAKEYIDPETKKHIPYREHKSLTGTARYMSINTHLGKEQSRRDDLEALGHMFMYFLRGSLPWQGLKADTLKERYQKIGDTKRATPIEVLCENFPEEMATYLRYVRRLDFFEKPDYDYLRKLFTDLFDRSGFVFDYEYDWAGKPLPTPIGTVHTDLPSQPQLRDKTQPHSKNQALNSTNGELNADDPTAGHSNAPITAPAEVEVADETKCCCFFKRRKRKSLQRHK
T3 sequence (Q13557 whole entry): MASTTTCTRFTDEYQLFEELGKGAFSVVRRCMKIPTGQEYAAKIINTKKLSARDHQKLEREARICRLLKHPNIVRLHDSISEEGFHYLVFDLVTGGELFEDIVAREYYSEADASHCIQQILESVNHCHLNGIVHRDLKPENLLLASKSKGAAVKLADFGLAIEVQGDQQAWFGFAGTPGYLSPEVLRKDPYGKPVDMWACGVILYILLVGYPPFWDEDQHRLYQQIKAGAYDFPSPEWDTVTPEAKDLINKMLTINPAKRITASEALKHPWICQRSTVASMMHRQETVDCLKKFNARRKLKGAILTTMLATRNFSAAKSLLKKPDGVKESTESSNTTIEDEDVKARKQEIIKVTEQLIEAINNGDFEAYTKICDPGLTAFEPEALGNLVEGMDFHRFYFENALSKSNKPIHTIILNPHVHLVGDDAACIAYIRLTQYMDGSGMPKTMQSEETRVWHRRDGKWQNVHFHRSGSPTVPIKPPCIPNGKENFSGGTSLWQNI
T9 sequence (Q9C098 whole entry): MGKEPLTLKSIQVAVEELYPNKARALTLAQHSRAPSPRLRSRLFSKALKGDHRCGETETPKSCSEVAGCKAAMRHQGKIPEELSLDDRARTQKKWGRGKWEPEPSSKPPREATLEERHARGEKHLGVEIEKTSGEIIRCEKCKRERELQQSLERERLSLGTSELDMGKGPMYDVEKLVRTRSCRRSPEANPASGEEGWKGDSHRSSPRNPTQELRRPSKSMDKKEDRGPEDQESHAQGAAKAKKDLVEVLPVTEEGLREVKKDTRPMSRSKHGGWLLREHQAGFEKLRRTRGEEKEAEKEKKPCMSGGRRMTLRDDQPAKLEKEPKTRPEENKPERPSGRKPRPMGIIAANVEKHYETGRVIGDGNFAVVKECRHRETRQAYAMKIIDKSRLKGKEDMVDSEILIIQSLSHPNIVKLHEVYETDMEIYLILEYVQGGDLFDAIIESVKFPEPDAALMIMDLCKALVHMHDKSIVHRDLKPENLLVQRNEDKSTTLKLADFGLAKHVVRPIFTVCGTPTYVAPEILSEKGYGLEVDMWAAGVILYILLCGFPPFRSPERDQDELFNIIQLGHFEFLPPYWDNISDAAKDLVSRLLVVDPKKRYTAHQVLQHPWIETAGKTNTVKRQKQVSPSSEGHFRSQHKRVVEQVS
T18 sequence (P15735 whole entry): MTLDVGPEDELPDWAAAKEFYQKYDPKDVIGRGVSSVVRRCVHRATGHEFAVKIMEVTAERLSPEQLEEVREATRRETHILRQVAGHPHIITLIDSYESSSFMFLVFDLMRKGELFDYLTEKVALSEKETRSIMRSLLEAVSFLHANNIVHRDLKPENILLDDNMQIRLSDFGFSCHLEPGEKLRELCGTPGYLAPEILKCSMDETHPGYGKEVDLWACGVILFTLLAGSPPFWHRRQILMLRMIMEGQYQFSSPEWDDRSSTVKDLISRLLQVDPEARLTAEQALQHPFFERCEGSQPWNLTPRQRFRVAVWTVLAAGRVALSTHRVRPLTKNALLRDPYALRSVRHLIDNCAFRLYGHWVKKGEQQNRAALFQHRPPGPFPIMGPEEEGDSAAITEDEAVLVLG

CCC(=O)Nc1cc(Nc2cc(NC3CC3)n3ncc(C#N)c3n2)c(F)cc1N1CCC[C@H](NC)C1 [Compound 2, (S)-N-(5-((3-cyano-7-(cyclopropylamino)pyrazolo[1,5-a]pyrimidin-5-yl)amino)-4-fluoro-2-(3-(methylamino)piperidin-1-yl)phenyl)propionamide]
receptor occupancy at 10 µM (AURKB): 1.4%
receptor occupancy at 10 µM (BRSK2): 13.6%
receptor occupancy at 10 µM (CAMK2D): 18.4%
receptor occupancy at 10 µM (CDK1 + B1): 6.2%
receptor occupancy at 10 µM (CDK14 + Y): 29.4%
receptor occupancy at 10 µM (CDKL1): 1.5%
% occupancy at 10 μM (CLK4; CLK4, HEK293): 74%
receptor occupancy at 10 µM (CLK4; HEK293, CLK4): 73.8%
receptor occupancy at 10 µM (CSNK1G2): 21.8%
receptor occupancy at 10 µM (DCLK3): 44.7%
receptor occupancy at 10 µM (EPHA4): 7.8%
receptor occupancy at 10 µM (ERN2): 9.2%
receptor occupancy at 10 µM (FES): 11.7%
receptor occupancy at 10 µM (HIPK2): 21.5%
receptor occupancy at 10 µM (JAK3): 4.6%
receptor occupancy at 10 µM (MAP4K1): 5.1%
receptor occupancy at 10 µM (MAPK14): 10.4%
receptor occupancy at 10 µM (NTRK2): -0.1%
receptor occupancy at 10 µM (PHKG2): 29.7%
receptor occupancy at 10 µM (PLK4): 3.8%
receptor occupancy at 10 µM (PRKCE): 6.2%
receptor occupancy at 10 µM (RIPK1): 9.1%
receptor occupancy at 10 µM (RPS6KA4): 6.4%
receptor occupancy at 10 µM (STK32B): 5.9%
receptor occupancy at 10 µM (TBK1): 18.5%
receptor occupancy at 10 µM (TEK): 5.2%
receptor occupancy at 10 µM (TLK2): 4.6%
receptor occupancy at 10 µM (TNNI3K): 8%
receptor occupancy at 10 µM (ULK2): 15.5%
